Structures are written as SMILES.

By melting point is commonly meant the temperature of the solid-liquid transition. As to `CON(C)CCNc1ncnc2nc[nH]c12`, the melting point is 168 to 170 °C. In the case of `Cc1cc(-c2cccs2)ccc1C(=O)c1cccc2c1Nc1ncccc1CN2` it was 118 to 120 °C; in that of `CCCCn1nnnc1-c1c(O)ccc(-c2cccc(C(=O)O)c2)c1O`, 261 to 264 °C.

As for `Cc1ccc(-c2ccc3c(c2)C=C(C(=O)Nc2ccc(C#N)cc2)CCO3)cc1`, the melting point lay in the range of 187 to 189 °C. In the case of `O=C1c2ccc3c4cccc5cccc(c6ccc(c2c36)C(=O)N1CCCCCO)c54` it was 274 to 276 °C. Regarding `Nc1nnc(-c2cc3c(Oc4ccc(Cl)cc4)cncc3s2)s1`, the melting point is > 270 °C. The same measure for `CN(C)CCNC1=CC(=O)c2nc(-c3cc(F)ccc3F)oc2C1=O`: 162 to 163 °C; for `O=C(Nc1ccc2[nH]c(=O)oc2c1)C(=O)N1CCC(Cc2ccc(F)cc2)CC1`: 224 to 227 °C.

The molecule `CCC1Cc2ccc(C)cc2C1=O` (centres undefined) showed a melting point of 50 to 52 °C. `NCCN1CCOC(c2ccccc2)(c2ccccc2)CC1` registered a melting point of 75 to 80 °C. In the case of `COc1ccc(C=CC(=O)c2c(OC)cc(OC)cc2OC2OC(COC(C)=O)C(OC(C)=O)C(OC(C)=O)C2NC(C)=O)cc1` (centres undefined) it was 108 to 110 °C; in that of `CCOCc1nc2c(N)nc3cc(OCc4ccccc4)ccc3c2n1CCCCN1CCCS1(=O)=O`, 225 to 227 °C; in that of `COCOc1ccc(OC(C)C(=O)Nc2ccc(OC(F)(F)F)cc2)cc1` (centres undefined), 115 to 116 °C.

As for `Cc1oc(-c2ccccc2)nc1COc1cncc(CCl)c1`, the melting point lay within 98 to 99 °C. Molecule `CCOC(=O)C=C[C@H](Cc1ccc(-c2ccccc2)cc1)NC(=O)OC(C)(C)C` gave a melting point of 91 to 94 °C. For the molecule `CCC1(CCCCN2CCc3sc(Cl)cc3C2)C(=O)Nc2ccccc21` (centres undefined), the melting point is 117 to 119 °C. In the case of `Fc1ccc2[nH]c(SCC(F)(F)F)nc2c1` it was 136 to 139 °C. The same measure for `CC(C)=CCN(C(=O)OC(C)(C)C)c1ccc(OC2CCN(C(=O)OC(C)(C)C)CC2)cc1`: 145 to 148 °C; for `CCOC(=O)C1=C(C(=O)OCC)C(c2cccc([N+](=O)[O-])c2)C(C(=O)OCC)=C(C(=O)OCC)N1`: 121 to 124 °C.

Consider `CC(C)(C)c1cc(CCc2nnc(N)o2)cc(C(C)(C)C)c1O`, for which the melting point lay within 220 to 221 °C. Take `Cn1c(=O)oc2cc3c(cc21)OCC31C(=O)Nc2ccccc21` (centres undefined): the melting point was > 250 °C. In the case of `CCCc1c(C(=O)OCC)sc2[nH]c(=O)c(=O)[nH]c12`, the melting point was in the range of 305 to 307 °C. The same measure for `COc1c(O)c(C)c2c(c1OC)OC(C)(CN1CCC(c3ccccc3)CC1)C2` (centres undefined): 112 to 113 °C; for `COc1ccc2oc(CC(=O)O)c(C)c2c1`: 113 to 114 °C. Take `CCCC(CCC)(CCC)C(=O)O`: the melting point was determined as 67 °C.

In turn, `c1ccc(-c2cc(-n3ccc4ccccc43)c3ccccc3n2)cc1` gave a melting point of 100 to 102 °C. Regarding `CON1C(C)(C)CC(O)CC1(C)C`, the melting point lay in the range of 92 to 93 °C. In the case of `O=[N+]([O-])C1NC=CN1c1ccncc1` (centres undefined) it was 234 °C; in that of `C=CCC(C)(C)CNc1cc(N2CCNCC2)nc(NCC(C)(C)CC=C)n1`, 72 to 84 °C. In the case of `COc1ccc2nccc(NC(=O)N3CCN(CC(O)c4ccc5c(c4)NC(=O)CO5)CC3)c2n1` (centres undefined) it was 231 to 233 °C; in that of `CC(C)(C)OCC1CN(c2ccc3ccccc3c2)C(=O)O1` (centres undefined), 112 to 113 °C. In the case of `COc1cc(Oc2ccc(S(C)(=O)=O)cc2)cc2cc(C3=NCC(CC(=O)O)S3)[nH]c12` (centres undefined), the melting point fell in the range of 144 to 145 °C. In the case of `N#Cc1cccc(C2C3=C(CCS3)NC3=C2C(=O)CCC3)c1` (single isomer, unassigned; (+)) it was > 250 °C; in that of `C[C@@H](Nc1ncnc2cc(OCC3CC3)c([N+](=O)[O-])cc12)c1ccccc1`, 155 °C. In the case of `CC(SC1COC(c2ccc(C(=O)Nc3ccc(Br)cc3)cc2)OC1)C(O)(Cn1cncn1)c1ccc(F)cc1F` (centres undefined) it was 221 °C. In the case of `COC(=O)c1ccc(-c2nc(COc3ccc(CO)cc3OC)c(C)o2)cc1` it was 170 to 171 °C; in that of `CC12C=CC(=O)C=C1CCC1C2CCC2(C)C(=O)COC12` (centres undefined), 181 to 185 °C. Consider `CC1(CCSc2nc3ccccc3o2)Cn2cc([N+](=O)[O-])nc2O1` (centres undefined), for which the melting point fell in the range of 174 to 175 °C. In the case of `CCOC(=O)c1cn(C2CC2)c2c(OC(F)F)c(F)c(F)c([N+](=O)[O-])c2c1=O` it was 262 to 268 °C; in that of `CCCCCCCCCNC(=O)CCC(=O)OO`, 85 to 91 °C. The molecule `COc1ccc(C=C2c3ccccc3CCc3ccccc32)cc1NS(C)(=O)=O` gave a melting point of 192 °C. Take `CC(O)C(C)(C)NC(=O)[C@@H]1CCCN1C(=O)[C@@H](O)[C@H](Cc1ccccc1)NC(=O)[C@H](CC(N)=O)NC(=O)OCc1ccccc1` (some centres undefined): the melting point was in the range of 102 to 104 °C. Molecule `CCOC(=O)c1cccc(C)c1S(=O)(=O)NC(=O)Nc1nc(OCC(F)(F)F)nc(N(C)C)n1` displayed a melting point of 134 to 142 °C. `O=C(O)CCCCOc1ccc(OCc2ccccc2)cc1` had a melting point of 127 to 128 °C. In the case of `COc1cc2c(c(C)c1C)C(=O)CC2c1c[nH]cn1` (centres undefined), the melting point is 258 to 261 °C. In the case of `O=[N+]([O-])c1ccccc1N1CCN(Cc2ccccc2)CCN1` it was 90 to 92 °C; in that of `CCCCCCCCCCCCCCCCCCN1C(=O)C2(CCCCC2)NC2(CCCCC2)C1=O`, 39 to 40 °C. As to `CC(=O)N[C@@H](C)COc1ccc2nc(-c3cc(F)c(OCC4CC4)cc3F)oc2c1F`, the melting point amounted to 153 °C. The same measure for `CCOC(=O)C1=C(c2ccc(-c3ocnc3C)cc2)NC(C)=C(C(=O)Nc2ccccn2)C1c1ccccc1Cl` (centres undefined): 176 to 179 °C; for `Cc1ncn(-c2ccc(N3C[C@H](CO)OC3=O)cc2F)n1`: 190 to 192 °C; for `Cn1ncc2c1-c1c(Oc3ccc(O)cc3)sc(C(N)=O)c1CC2`: 137 to 139 °C.

As to `O=C(O)Cc1c(Cl)nc(-c2ccccc2)n1Cc1cc([N+](=O)[O-])ccc1Cl`, the melting point was 200 to 205 °C. With `COc1ccc(SC(C)(Cc2ccccc2)C(=O)NO)cc1` (centres undefined), the melting point was 88 °C. The molecule `O=C(NC(=O)c1c(F)cccc1F)Nc1ccc(Cl)cn1` gave a melting point of 226 to 229 °C. In the case of `CN1CCc2c(C3=CC(=O)CCC3)c(F)cc3c(=O)c(C(=O)O)cn1c23` it was > 300 °C; in that of `O=C(O)CCCn1c(-c2ccc3c(c2)OCO3)nc2ccccc21`, 177 to 180 °C; in that of `CC1(C)CCC(C)(C)c2cc(OCc3ccc(CC(N)=O)cc3)ccc21`, 202 to 205 °C. Molecule `CCc1nc2ncnn2c(N)c1CCCCC(F)=C(F)F` came in with a melting point of 199 °C. The same measure for `COC(=O)[C@@H](Cc1ccccc1)Nc1cc(-c2ccc(OCc3ccccc3)cc2)ncn1`: 150 °C; for `CSc1ccc(C(=CN(C)C)C(C)=O)cc1`: 89 to 91 °C; for `O=C(O)CCCC(=O)CNC(=O)c1csc(NC(=O)NCc2ccccc2)n1`: 169 °C. `CC(C)c1ccc(C(=O)NC(C)c2cccs2)cc1` (centres undefined) gave a melting point of 100 °C. In the case of `CS(=O)(=O)c1ccc(-c2cc(C(F)F)cn2-c2ccc(F)cc2)cc1` it was 98 to 100 °C; in that of `COc1ccccc1-n1c(=O)[nH]c2c(C(N)=O)nc(-c3cccc(N)c3)nc21`, 284 to 285 °C; in that of `CCOC(=O)c1cc2cccc(OC)c2[nH]1`, 69 to 72 °C.

Molecule `N#Cc1c(-c2ccccc2)[nH]c(Cl)c1Cl` had a melting point of 254 to 255 °C. In the case of `CC1(C)CCOc2c(CC#Cc3ccc(C(=O)O)c(O)c3)cccc21` it was 182 to 183 °C. The same measure for `CC1(C)SCN(CCCCN2CCN(c3n[nH]c4cc(F)ccc34)CC2)C1=O`: 123 to 125 °C; for `CSc1nc(O)nn1C(C)C`: 90 to 92 °C; for `CCCOc1cc(Cl)ccc1-c1nc2ncn(C)c(=S)n2n1`: 160 to 162 °C. `FC(F)c1nc2ccccc2n1-c1nc(Nc2cnc3ccccc3c2)nc(N2CCOCC2)n1` returned a melting point of 270 to 273 °C. Turning to `CCCCc1nc(=O)c2cc(I)ccc2[nH]1`, the melting point lay in the range of 258 to 260 °C. In the case of `CC(C)N1CCN(c2ccc([N+](=O)[O-])cc2)C(=O)C1` it was 87 to 90 °C. In the case of `CC(=O)Oc1ccc(-c2cnc(N)c(Cc3ccccc3)n2)cc1` it was 184 to 186 °C; in that of `CC(C)NS(=O)(=O)NC(C)C`, 98 to 101 °C. In the case of `OC[C@@H](O)COc1ccc(OCc2ccccc2)cc1` it was 125 to 126 °C; in that of `NC(=O)C1c2ccccc2-c2ccccc21`, 250 °C; in that of `C=C1N(CCC)C(=O)OC12CCN(CC=C(c1ccccc1)c1ccccc1)CC2`, 126 to 127 °C. As to `O=C(Nc1ccc2ccc(Cl)nc2n1)c1cccc(F)c1`, the melting point came out at 202 °C.

The molecule `CCOCCOc1ccc(-c2nc(C(=O)Nc3nccs3)c(-c3ccc(Cl)cc3)[nH]2)cc1` registered a melting point of 115 °C. For the molecule `O=c1oc2c(c(O)c1C(c1ccccc1)C1CC1)CCCCCC2CC1CCCOC1` (centres undefined), the melting point lay within 89 to 95 °C.

On to `CC(C)(C)NC(=O)[C@@H]1C[C@H](Cl)CN1C(=O)[C@@H](O)[C@H](Cc1ccccc1)NC(=O)[C@H](CC(N)=O)NC(=O)OC(C)(C)C`, for which the melting point was 126 to 132 °C.

In the case of `O=C(N[C@H](Cc1ccc(CC(F)(F)C(F)(F)F)cc1)[C@@H](O)c1cccc(Cl)c1)c1ccc(F)c2ccccc12` (racemic), the melting point is 191 to 192 °C. In the case of `COc1cc(Nc2nccc(Nc3ccc(CC(=O)O)cc3)n2)cc(OC)c1OC`, the melting point was in the range of 144 to 150 °C. In the case of `COC(=O)C=Cc1ccc(Cl)c(Cl)c1` it was 114 to 115 °C; in that of `N#CSCC(=O)N1CCCCC1`, 78 to 79 °C. Take `CN(C)NC(=O)C(C)(C)C`: the melting point was in the range of 120 to 122 °C. In the case of `O=c1c2ccccc2nnn1CCN1CCC(c2c[nH]c3ccccc23)CC1` it was 171 °C. The same measure for `CCCCCCCCNC(=O)CP(=O)(O)O`: 142 to 143 °C.

Values taken from a melting point compilation (Tetko et al.; mined from patent text by program, amines drawn as free bases though some values may be those of a salt).
